Laboratory results published in US20060063784A1, “Method of using substituted pyrazolo [1,5-a] pyrimidines” (priority 2004, published 2006).
Where two headings read alike, the source gives them in different places.

What was measured:
[1] = test system: 80S14 (p21-deficient) cells; test: Cytotoxicity assay using isogenic cell lines: IC50 in 80S14 (p21-deficient) cells, SRB; type: cell-based, human; settings: Homo sapiens
Method in brief: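 80S14 (p21-deficient) cells seeded at 12,000 cells/well overnight, then exposed 5 days at 37 °C to serial dilutions (5 pM–50 μM or 170 pg/ml–10 μg/ml). TCA-fixed, sulforhodamine B-stained, absorbance at 560 nm; IC50 taken from cytotoxicity curves versus untreated controls.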

LoVo Colon cell line = test: Cytotoxicity assay using LoVo colon cell line, SRB; type: cell-based; settings: Homo sapiens, 96 h, read-out: Inhibition of LoVo
Protocol: Cytotoxicity Assay Using LoVo Colon Cell Line: • 1. LoVo Colon cell lines were cultured in RPMI 1640 medium (Gibco/Invitrogen Life Sciences) supplemented with 10% fetal bovine serum (FBS, Gibco) and 50 μg/ml entamicin (Gibco). Cells were maintained at 37° C. under 7% CO2. • 2. Cells were seeded in 96-well microtiter plates (Corning/Costar) in a volume of 0.15 ml of growth medium (4000 cells/well). Plates were incubated at 37° C. overnight (18-24 hours). • 3. Serial dilutions of the test agent were added to each well. Dilutions were prepared in growth medium. One of two dose ranges was used: 5 pM to 20 μM or 170 pg/ml to 10 μg/ml. Cells were incubated with the test compounds for 4 days at 37° C. • 4. Surviving cells were processed using the SRB asay, as described above.
5. The drug concentration that inhibits cell proliferation by 50% relative to untreated controls (IC50) was determined from cytotoxicity curves using the LSW Toolbox graphing application.

[2] = 120 h, 80S14 p21-deficient cells, 5 days incubation, SRB, read-out: IC50 for 80SI4
[3] = LoVo colon cells, 4 days incubation, SRB
[4] = 120 h, 80S14 (p21-deficient) cells, 5 days, SRB, class symbols, read-out: IC50 for 80S14
[5] = Cellular activity in LoVo cell, 4 days incubation, SRB

`O=C(Nc1cccc(-c2ccnc3c(C(=O)c4cccs4)cnn23)c1)OC1C=CCCC1` (stereo not shown) [Example 173, cyclohex-2-en-1-yl 3-[3-(thien-2-ylcarbonyl)pyrazolo[1,5-a]pyrimidin-7-yl]phenylcarbamate] gave an IC50 [1, 2] of less than 1 µM and an IC50 (LoVo Colon cell line; [3]) of less than 100 nM.

Compound `O=C(Nc1cccc(-c2ccnc3c(C(=O)c4cccs4)cnn23)c1)OCC1CCC1` [Example 174, cyclobutylmethyl 3-[3-(thien-2-ylcarbonyl)pyrazolo[1,5-a]pyrimidin-7-yl]phenylcarbamate] has an IC50 [1, 2] of less than 1 µM and an IC50 (LoVo Colon cell line; [3]) of less than 100 nM.

Compound `O=C(Nc1cccc(-c2ccnc3c(C(=O)c4cccs4)cnn23)c1)OCC1CCCCC1` [Example 175, cyclohexylmethyl 3-[3-(thien-2-ylcarbonyl)pyrazolo[1,5-a]pyrimidin-7-yl]phenylcarbamate] has an IC50 [1, 2] of less than 1 µM and an IC50 (LoVo Colon cell line; [3]) of less than 100 nM.

For `O=C(Nc1cccc(-c2ccnc3c(C(=O)c4cccs4)cnn23)c1)OC1CCOCC1` [Example 176, tetrahydro-2H-pyran-4-yl 3-[3-(thien-2-ylcarbonyl)pyrazolo[1,5-a]pyrimidin-7-yl]phenylcarbamate], the IC50 [1, 2] was less than 1 µM and the IC50 (LoVo Colon cell line; [3]) was less than 100 nM.

`CC(C)=CCOC(=O)Nc1cccc(-c2ccnc3c(C(=O)c4cccs4)cnn23)c1` [Example 177, 3-methylbut-2-enyl 3-[3-(thien-2-ylcarbonyl)pyrazolo[1,5-a]pyrimidin-7-yl]phenylcarbamate] showed an IC50 [1, 2] of 1 to 10 µM and an IC50 (LoVo Colon cell line; [3]) of less than 100 nM.

Compound `CSCCOC(=O)Nc1cccc(-c2ccnc3c(C(=O)c4cccs4)cnn23)c1` [Example 178, 2-(methylthio)ethyl 3-[3-(thien-2-ylcarbonyl)pyrazolo[1,5-a]pyrimidin-7-yl]phenylcarbamate] has an IC50 [1, 2] of less than 1 µM and an IC50 (LoVo Colon cell line; [3]) of less than 100 nM.

Work on `CCCOC(=O)Nc1cccc(-c2cc(C)nc3c(C(=O)c4cccs4)cnn23)c1` [Example 194, propyl 3-[5-methyl-3-(thien-2-ylcarbonyl)pyrazolo[1,5-a]pyrimidin-7-yl]phenylcarbamate] yielded an IC50 [1, 2] of less than 1 µM and an IC50 (LoVo Colon cell line; [3]) of less than 100 nM.

For `CCCCOC(=O)Nc1cccc(-c2cc(C)nc3c(C(=O)c4cccs4)cnn23)c1` [Example 195, butyl 3-[5-methyl-3-(thien-2-ylcarbonyl)pyrazolo[1,5-a]pyrimidin-7-yl]phenylcarbamate], the IC50 [1, 2] was less than 1 µM and the IC50 (LoVo Colon cell line; [3]) was less than 100 nM.

`C=CCOC(=O)Nc1cccc(-c2cc(C)nc3c(C(=O)c4cccs4)cnn23)c1` [Example 196, allyl 3-[5-methyl-3-(thien-2-ylcarbonyl)pyrazolo[1,5-a]pyrimidin-7-yl]phenylcarbamate] was tested, and the IC50 [1, 2] was less than 1 µM and the IC50 (LoVo Colon cell line; [3]) was 100 to 1000 nM.

Work on `Cc1cc(-c2cccc(NC(=O)OC(C)C)c2)n2ncc(C(=O)c3cccs3)c2n1` [Example 197, isopropyl 3-[5-methyl-3-(thien-2-ylcarbonyl)pyrazolo[1,5-a]pyrimidin-7-yl]phenylcarbamate] yielded an IC50 [1, 2] of less than 1 µM and an IC50 (LoVo Colon cell line; [3]) of less than 100 nM.

With `Cc1cc(-c2cccc(NC(=O)OCCCl)c2)n2ncc(C(=O)c3cccs3)c2n1` [Example 198, 2-chloroethyl 3-[5-methyl-3-(thien-2-ylcarbonyl)pyrazolo[1,5-a]pyrimidin-7-yl]phenylcarbamate] the IC50 [1, 2] was less than 1 µM and the IC50 (LoVo Colon cell line; [3]) was less than 100 nM.

`C=CCCOC(=O)Nc1cccc(-c2cc(C)nc3c(C(=O)c4cccs4)cnn23)c1` [Example 199, but-3-enyl 3-[5-methyl-3-(thien-2-ylcarbonyl)pyrazolo[1,5-a]pyrimidin-7-yl]phenylcarbamate] gave an IC50 [1, 2] of less than 1 µM and an IC50 (LoVo Colon cell line; [3]) of less than 100 nM.

Compound `Cc1cc(-c2cccc(NC(=O)OCC(C)(C)C)c2)n2ncc(C(=O)c3cccs3)c2n1` [Example 200, neopentyl 3-[5-methyl-3-(thien-2-ylcarbonyl)pyrazolo[1,5-a]pyrimidin-7-yl]phenylcarbamate] has an IC50 [1, 2] of less than 1 µM and an IC50 (LoVo Colon cell line; [3]) of 100 to 1000 nM.

`Cc1cc(-c2cccc(NC(=O)CC(C)C)c2)n2ncc(C(=O)c3cccs3)c2n1` [Example 201, 3-methyl-N-{3-[5-methyl-3-(thien-2-ylcarbonyl)pyrazolo[1,5-a]pyrimidin-7-yl]phenyl}butanamide] gave an IC50 [1, 2] of less than 1 µM and an IC50 (LoVo Colon cell line; [3]) of less than 100 nM.

Work on `Cc1cc(-c2cccc(NC(=O)c3ccccc3)c2)n2ncc(C(=O)c3cccs3)c2n1` [Example 202, N-{3-[5-methyl-3-(thien-2-ylcarbonyl)pyrazolo[1,5-a]pyrimidin-7-yl]phenyl}benzamide] yielded an IC50 [1, 2] of 10 to 50 µM and an IC50 (LoVo Colon cell line; [3]) of 100 to 1000 nM.

In the case of `Cc1cc(-c2cccc(NC(=O)C3CCCC3)c2)n2ncc(C(=O)c3cccs3)c2n1` [Example 204, N-{3-[5-methyl-3-(thien-2-ylcarbonyl)pyrazolo[1,5-a]pyrimidin-7-yl]phenyl}cyclopentanecarboxamide], the IC50 [1, 2] is reported as less than 1 µM and the IC50 (LoVo Colon cell line; [3]) is reported as 100 to 1000 nM.

Work on `Cc1cc(-c2cccc(NC(=O)Cc3cccs3)c2)n2ncc(C(=O)c3cccs3)c2n1` [Example 205, N-{3-[5-methyl-3-(thien-2-ylcarbonyl)pyrazolo[1,5-a]pyrimidin-7-yl]phenyl}-2-thien-2-ylacetamide] yielded an IC50 [1, 2] of 1 to 10 µM and an IC50 (LoVo Colon cell line; [3]) of 100 to 1000 nM.

In the case of `CCCCNC(=O)Nc1cccc(-c2cc(C)nc3c(C(=O)c4cccs4)cnn23)c1` [Example 206, N-butyl-N′-{3-[5-methyl-3-(thien-2-ylcarbonyl)pyrazolo[1,5-a]pyrimidin-7-yl]phenyl}urea], the IC50 [1, 2] is reported as 1 to 10 µM and the IC50 (LoVo Colon cell line; [3]) is reported as 100 to 1000 nM.

`Cc1cc(-c2cccc(NC(=O)NC(C)C)c2)n2ncc(C(=O)c3cccs3)c2n1` [Example 207, N-isopropyl-N′-{3-[5-methyl-3-(thien-2-ylcarbonyl)pyrazolo[1,5-a]pyrimidin-7-yl]phenyl}urea] gave an IC50 [1, 2] of less than 1 µM and an IC50 (LoVo Colon cell line; [3]) of 100 to 1000 nM.

`CCCOC(=O)Nc1cccc(-c2c(C)cnc3c(C(=O)c4cccs4)cnn23)c1` [Example 208, propyl 3-[6-methyl-3-(thien-2-ylcarbonyl)pyrazolo[1,5-a]pyrimidin-7-yl]phenylcarbamate] gave an IC50 [1, 2] of 10 to 50 µM and an IC50 (LoVo Colon cell line; [3]) of 100 to 1000 nM.

Work on `Cc1cnc2c(C(=O)c3cccs3)cnn2c1-c1cccc(NC(=O)OC(C)C)c1` [Example 211, isopropyl 3-[6-methyl-3-(thien-2-ylcarbonyl)pyrazolo[1,5-a]pyrimidin-7-yl]phenylcarbamate] yielded an IC50 [1, 2] of 10 to 50 µM and an IC50 (LoVo Colon cell line; [3]) of 1000 to 2000 nM.

`Cc1cnc2c(C(=O)c3cccs3)cnn2c1-c1cccc(NC(=O)OCC(C)(C)C)c1` [Example 214, neopentyl 3-[6-methyl-3-(thien-2-ylcarbonyl)pyrazolo[1,5-a]pyrimidin-7-yl]phenylcarbamate] was tested, and the IC50 [1, 2] was 10 to 50 µM and the IC50 (LoVo Colon cell line; [3]) was 1000 to 2000 nM.

Compound `CCCNc1cccc(-c2ccnc3c(C(=O)c4cccs4)cnn23)c1` [Example 267, [7-[3-(Propylamino)phenyl]pyrazolo[1,5-a]pyrimidin-3-yl]-2-thienyl-methanone] has an IC50 [1, 4] of 1 to 10 µM and an IC50 (LoVo Colon cell line; [5]) of 100 to 1000 nM.

`CC(C)C(=O)Nc1cccc(-c2ccnc3c(C(=O)c4cccs4)cnn23)c1` [Example 273, 2-Methyl-N-{3-[3-(2-thienylcarbonyl)pyrazolo[1,5-a]pyrimidin-7-yl]phenyl}propanamide] gave an IC50 ([1]; 80S14, 120 h, read-out: IC50 for 80S14 (uM)) of less than 1 µM and an IC50 (LoVo Colon cell line; LoVo) of 100 to 1000 nM.

With `CC#CC(=O)Nc1cccc(-c2ccnc3c(C(=O)c4cccs4)cnn23)c1` [Example 274, N-{3-[3-(2-Thienylcarbonyl)pyrazolo[1,5-a]pyrimidin-7-yl]phenyl}-2-butynamide] the IC50 [1, 4] was less than 1 µM and the IC50 (LoVo Colon cell line; [5]) was less than 100 nM.

In the case of `Cc1cc(-c2cccc(NC(=O)C3CC3)c2)n2ncc(C(=O)c3cccs3)c2n1` [Example 276, N-{3-[5-Methyl-3-(2-thienylcarbonyl)pyrazolo[1,5-a]pyrimidin-7-yl]phenyl}cyclopropanecarboxamide], the IC50 [1, 4] is reported as less than 1 µM and the IC50 (LoVo Colon cell line; [5]) is reported as less than 100 nM.
